Where two headings read alike, the source gives them in different places.
Experiments:
[1] = Description: Chemical Drug Class 1 New Drug
A Toxicity Test in Beagle Dogs Administered ZG0128 by Oral Gavage for 28 […]
The study consisted of 4 groups, including the control group and dose groups of […]
active ingredient ZG0163). Each group contained 10 dogs, with 5 male dogs and 5 female dogs. The dogs in each group were orally administered with control (empty capsule) or the corresponding doses of ZG0128 once a day for 28 consecutive days, followed by 28 days for recovery after drug discontinuation. The day of the first dose is defined as day 1 of the dosing period. During the dosing period and the recovery period, the general conditions of the dogs in different groups were observed every day.
The body weight and food intake of the dogs were measured twice a week during the dosing period and once a week during the recovery period, respectively. At 2-3 h after the dosing on day 14, and 2-3 h after the last dose as well as on the last day of the recovery period. The lead II electrocardiogram, blood pressure and body temperature (anal temperature) were measured. One ophthalmic examination and routine urinalysis were arranged at the end of dosing and recovery periods, respectively. Hematology and blood biochemistry tests were performed on day 15 and the end of the dosing and recovery periods, respectively.
In all other groups, 6 and 4 dogs
(male:female=1:1) were dissected at the end of dosing and recovery periods, respectively. After the dogs were euthanized, bone marrow smear, gross anatomy, organ weight measurement and histopathological examination of tissue samples were performed. Blood samples were collected from dogs before the first/last dose and 0.5, 1, 2, 4, 6, 10, 24 h after drug administration in ZG0128 dose groups. Blood samples were collected before the first/last dose and 2 h after the first/last dose, respectively.
LC-MS/MS was used to measure the concentration of the original drug ZG0163 and […]
the amide hydrolysis metabolite ZG0245 in blood samples at various time points and to calculate AUClast, Cmax, Tmax, and other toxicokinetic parameters.

[2] = 28-day oral gavage toxicity; assay type: in vivo, Wistar rats; conditions: for drug exposure: 24.4 mg/kg
Protocol: Suzhou Zelgen Biopharmaceuticals Co., Ltd. Jaktinib Hydrochloride Tablets Chemical Drug Class 1 New Drug […]
active ingredient ZG0163). The control group contained 36 Wistar rats (6 rats were used for the toxicokinetic test) and each group of ZG0128 contained 54 rats (24 rats in each group were used for the toxicokinetic test), with half males and half females. The rats in each group were given the control substance (0.5% CMC-Na solution) or the corresponding concentrations of ZG0128 in a 10 mL/kg volume by oral gavage once a […]
The day of the first dose […]
is defined as day 1 of the dosing period, while the day of anatomy after the last dose is defined as day 1 of the recovery period. During the dosing period and the recovery […]
the body weight and food intake of the rats were measured twice a week during the […]
recovery periods, respectively. In the 219.6 mg/kg group, 12 (3 females, 9 males) and […]
and recovery periods, respectively. The rats in each group were anesthetized to collect blood samples for hematology and blood biochemistry tests. After the rats were […]
histopathological examination of tissue samples were performed. For the rats in […]
ZG0128 groups used for toxicokinetic test, their blood samples were collected before the first dose and last dose as well as 0.5, 1, 2, 3, 4, 6, 10, and 24 h after the first dose and last dose. For the rats in the control group, their blood samples were collected before the first dose and last dose and 3 h after the first dose and last dose, respectively.
LC-MS/MS was used to measure the concentrations of the original drug ZG0163 and its amide hydrolysis metabolite ZG0245 in the blood samples collected at various time […]
tissues, spleen, thymus, and bone marrow), digestive system (gastrointestinal tract, pancreas, and submandibular gland), reproduction system, kidney, and bones. The drug caused abnormal indicators related to liver, renal, and pancreatic functions, as well as decreased lymphocytes and platelets. At the dose of 73.2 mg/kg, some of the above lesions could be observed, but the severity of the lesions was mild. After drug discontinuation, the lesions in the submandibular gland, testis, and epididymis were still visible in 73.2 and 219.6 mg/kg groups, and the severity of the lesions was not […]
disappeared after drug discontinuation.
In the dose range of 24.4 to 219.6 mg/kg, the exposure to ZG0128 and its metabolite ZG0245 in female and male rats increased in proportion to the dose, and no significant gender difference was observed. After 28 days of consecutive administration, […]
both female and male rats of each dose group.
After the Wistar rats were given 24.4, 73.2, and 219.6 mg/kg of ZG0128 by oral […]
mg/kg. At this dose, the drug exposure dose in female rats on the first day of dosing […]
10124 h•ng/mL in male rats. On day 28 of dosing, the drug exposure dose in female

[3] = 26-week oral gavage toxicity; assay type: in vivo, Wistar rats
Protocol: (§1) Suzhou Zelgen Biopharmaceuticals Co., Ltd. Jaktinib Hydrochloride Tablets Chemical Drug Class 1 New Drug
Wistar rats were given 4, 12, or 30 mg/kg of ZG0128 via oral gavage once a day for 26 consecutive weeks, followed by 28 days for recovery after drug discontinuation.
Only the 30 mg/kg dose caused a slight decrease in lymphocyte counts, which might be related to the pharmacological effects of ZG0128. The lymphocyte counts were back to normal by the end of recovery period. No other obvious abnormalities related to the […]
conditions, body weight, ophthalmologic examination, blood biochemistry, blood coagulation, routine urinalysis, gross anatomy and histopathological examination during the trial. The no observed adverse effect level (NOAEL) was 30 mg/kg. At this dose, the drug exposure was 52697 h•ng/mL (based on the active ingredient ZG0163) in female rats and 67133 h•ng/mL in male rats on the first day of dosing, and on day 182 of dosing the drug exposure was 75339 h•ng/mL (based on the active ingredient ZG0163) in female rats and 45024 h•ng/mL in male rats. […]

[4] = Single-dose oral toxicity; assay type: in vivo, Beagle dogs
Protocol: as §1
During the trial, the general conditions of the […]
measured once on days 3, 7, and 13, respectively. After 14 days of observation, the […]
and blood biochemistry tests. All rats were euthanized for gross anatomy. […]
after drug administration. […] During the […]
biochemistry tests were performed on days 2 and 15. After 14 days of observation, all dogs were anesthetized and euthanized for gross anatomy. Blood samples were […]
administration in ZG0128 dose groups. LC-MS/MS was used to measure the […]
AUClast, Cmax, Tmax, and other toxicokinetic parameters.

In the case of Jaktinib, the NOAEL ([1]; 28 days) is reported as 18.3 mg/kg, the NOAEL ([1]; Beagle dogs, oral, 28 days) is reported as 18.3 mg/kg/day and the drug exposure ([2]; female rats, day 28) is reported as 51893 ± 20625 ng·h/mL. The drug exposure ([2]; female rats, first day) was 60887 ± 21040 ng·h/mL, the drug exposure ([2]; male rats, day 28) was 46522 ± 17149 ng·h/mL and the drug exposure ([2]; male rats, first day) was 50799 ± 10124 ng·h/mL. It also gave an NOAEL ([3]; 26 weeks) of 30 mg/kg, an NOAEL ([3]; Wistar rats, oral, 26 weeks) of 30 mg/kg/day and an AUC0-t ([4]; single oral 366 mg/kg ZG0128) of 10215 ± 10044 ng/mL. It also gave an AUC0-t ([4]; single oral 1220 mg/kg ZG0128) of 19752 ± 9998 ng/mL.

With `Cl.Cl.O.[2H]C1([2H])COCC([2H])([2H])N1c1ccc(Nc2nccc(-c3ccc(C(=O)NCC#N)cc3)n2)cc1` [ZG0128, Jaktinib Dihydrochloride Monohydrate] the NOAEL ([1]; 28 days) was 18.3 mg/kg, the dose causing death ([1]; 28 days) was 195.2 mg/kg and the “highest non-severely toxic dose (HNSTD)” value ([1]; dog, in vivo) was 61 mg/kg. For the same compound, the “highest non-severely toxic dose (HNSTD)” value ([2]; 28 consecutive days) was 24.4 mg/kg, the “dose causing dying or death” value ([2]; 28 days) was 219.6 mg/kg and the NOAEL ([3]; rat, in vivo) was 30 mg/kg. For the same compound, the “maximum tolerated dose (MTD)” value ([4]; single oral dose) was 1220 mg/kg.
